According to ChEMBL document CHEMBL4417628, “Small molecule antagonists of dusp5 and methods of use” (2018):
Numbering of substitutions follows the chain as printed. Calls of active or inactive are those of the source. No cut-off for these calls is given here.

Assays:
[1] = molecular target: T1, Tyrosine-protein phosphatase non-receptor type 1 (Homo sapiens, UniProt P18031); assay: Inhibition of PTPN1 (unknown origin) using PNPP substrate incubated for 15 mins relative to control
T1 sequence (P18031 whole entry): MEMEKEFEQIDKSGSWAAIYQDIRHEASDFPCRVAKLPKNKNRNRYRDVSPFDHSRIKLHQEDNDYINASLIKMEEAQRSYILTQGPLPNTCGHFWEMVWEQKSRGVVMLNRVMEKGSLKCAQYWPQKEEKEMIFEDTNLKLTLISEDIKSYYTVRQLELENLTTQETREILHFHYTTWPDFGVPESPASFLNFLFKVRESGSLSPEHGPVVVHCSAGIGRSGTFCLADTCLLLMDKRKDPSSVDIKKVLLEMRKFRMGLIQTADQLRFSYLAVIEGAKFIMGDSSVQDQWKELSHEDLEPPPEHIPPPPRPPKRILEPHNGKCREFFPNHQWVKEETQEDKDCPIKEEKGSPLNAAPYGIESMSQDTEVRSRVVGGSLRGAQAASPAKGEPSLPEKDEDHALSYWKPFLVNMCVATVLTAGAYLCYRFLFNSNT

[2] = test system: T2, Dual specificity protein phosphatase 5 (Homo sapiens), Q16690 [C263S]; assay: Binding affinity to N-terminal hexa-histidine-tagged and 15N-labeled DUSP5 C263S mutant (unknown origin) expressed in Escherichia coli BL21 (DE3) at 500 uM by 2D 1H-15N HSQC NMR assay
T2 sequence (whole entry): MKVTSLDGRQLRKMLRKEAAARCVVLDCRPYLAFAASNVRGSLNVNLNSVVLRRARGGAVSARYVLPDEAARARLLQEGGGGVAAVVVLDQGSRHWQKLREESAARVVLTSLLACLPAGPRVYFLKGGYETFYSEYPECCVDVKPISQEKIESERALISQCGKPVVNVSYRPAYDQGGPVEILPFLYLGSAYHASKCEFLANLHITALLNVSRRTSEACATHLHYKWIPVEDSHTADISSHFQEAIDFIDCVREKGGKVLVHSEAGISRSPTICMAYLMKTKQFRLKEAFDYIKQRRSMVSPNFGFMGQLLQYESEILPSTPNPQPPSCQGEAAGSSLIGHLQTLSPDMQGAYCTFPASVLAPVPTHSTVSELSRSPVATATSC

[3] = molecular target: T3, Dual specificity protein phosphatase 5 (Homo sapiens) (UniProt Q16690); assay: Potency index, ratio of IC50 for NTS to IC50 for test compound for inhibition of full length DUSP5 (unknown origin) assessed as reduction in de-phosphorylation of GST-tagged recombinant phosphorylated ERK2 incubated for 15 mins by SDS-PAGE based immunoblot assay
T3 sequence (whole entry): T2 sequence (whole entry) with S263C

IC50 [1]: Not Active
Activity [2]: Active
Ratio IC50 [3]: 1000
SMILES: O=S(=O)([O-])c1cc(O)c2c(S(=O)(=O)[O-])cccc2c1.[Na+].[Na+]
